Results: patent US9062051B2, “Compounds and pharmaceutical compositions thereof for the treatment of proliferative disorders” (GALAPAGOS NV, priority 2014, dated 2015)
“Also recorded” adds a separate entry of the source. Values belong to the compound of their own block, whether it stands above or below them.

Experiments:
EphA4 = target: T1, EphA4 (UniProt Ref: P54764) (Homo sapiens, UniProt P54764); experiment: EphA4 assay (Reaction Biology HotSpot radioactive kinase assay); type: biochemical; details: EphA4 potency; ATP 10 μM
T1 construct: purchased Reaction Biology
Description: Inhibition of EphA4 (UniProt Ref: P54764) by a test compound is determined by a commercially available Reaction Biology proprietary nanoliter radioactive HotSpot^SM assay (Reaction Biology, One great valley parkway, Suite 2, Malvern Pa., 19355, USA). The principle of the assay consists of the measurement of incorporated ^33P into poly[Glu:Tyr] (4:1) (0.2 mg/mL) when the substrate is phosphorylated by the enzyme using [^33P]-γ-ATP and ATP (10 μM).
To determine the IC50, a serial dilution of compound is tested starting from 10 or 3 μM (highest dilution) with a 1/3 dilution.

[1] = In vivo efficacy in the rat MNX (meniscectomised) model of osteoarthritis, OARSI score; set-up: species or system female Lewis rat; details: versus MNX-vehicle
Text: In vivo efficacy was studied in a female Lewis meniscectomised rat (MNX) model. The MNX rat model is a well-validated disease model of osteoarthritis (Janusz et al., 2002; Pritzker et al., 2006; Bendele et al., 2001).
Osteoarthritis is induced by meniscectomy at day 0 (D0) in the right leg of each rat by a transection of the medial collateral ligament and 4 mm of ligament are removed. Internal part of the meniscus is transected vertically into two flaps which are pushed to the front and the back of the synovial cavity. Sham animals undergo only anaesthesia, skin and muscle incision then suture. On day 1, rats are randomly assigned to a treatment group (n=20 per group) according to their body weight, in order to have a homogenous distribution. From D2 to D21, rats are dosed per os (po) once daily (qd) or twice a day (bid) with compounds formulated in methylcellulose (MC) 0.5% or in HPβCD 10% pH3.0.
After at least 7 days of treatment, blood is sampled at 4 time points post administration: 0, 1, 3 and 6 h (and assuming 24 h is equal to the pre-dose sample), in order to determine steady-state plasma exposure.
At sacrifice, the right tibia of each rat is collected and processed for histological analysis. After 48 h of fixation in 4% formaldehyde, tibias are decalcified in Osteosoft for 7 days, and cut into 2 half parts prior to embedding face to face in paraffin. Five series of sections are cut at 200 μm intervals, covering about 1.5 mm of the middle part of the bone. One series of slides is stained with Safranin O and light green for morphological evaluation and OARSI scoring. The other series of slides are mounted with DAPI for chondrocyte density measurement.
The extent of cartilage injury reflecting osteoarthritis in the tibial plateau is evaluated and scored using the OARSI method based on the grading and the staging of cartilage lesion (Pritzker et al., 2006). The OARSI scoring is assessed in a blinded manner by two different readers. For each tibia, one score is attributed as the median of the OARSI score of the 5 sections.
OARSI score=grade×stage (1 to 24)
Grade=lesion depth into cartilage area, providing information on arthritis severity.
Stage=lesion extent over cartilage surface, providing information on arthritis extent.
For statistical analysis, medians of groups are compared with a stratified Kruskal-Wallis test followed by Dunnett multiple comparison post hoc test.
Significance levels: *p<0.05; **p<0.01; ***p<0.001 versus MNX-vehicle. Statistical analyses are done on all groups of the studies

MDA-MB-231 cells = experiment: Mouse xenograft model of human triple negative breast cancer (MDA-MB-231), tumorous growth inhibition; type: in vivo, Female BALB/c Mice; details: for RTV (Relative Tumor Volume) / T/C (Tumour Vs Control) / TGI (Tumor Growth Inhibition): p.o., qd
Description: Animals (Female BALB/c Mice, Harlan, 51930, 18-20 g) are provided with filtered tap water and standard chow ad libitum and maintained at 22±2° C. in 55±10% humidity on a 12 h light/dark cycle.
Paclitaxel used as a positive control is formulated by 1/3 dilution of commercial solution (Fresenius kabi, 871WF014/4) in saline.
The test compounds for po administration are formulated in 0.5% methylcellulose (VWR, ref AX021233).
MDA-MB-231 cell line is obtained from the ATCC collection (ref HTB-26). The cells are then cultured in RPMI 1640 medium supplemented with […] (Gibco 15140-148) and 1% (v/v) L-Glutamine 200 mM (Gibco 25030-024) at 37° C. in a 5% CO2 incubator.
5 million MDA-MB-231 cells/mice in 0.1 mL of 50% Matrigel (BD biosciences, LDEV free 256235)+50% D-PBS 1× (Gibco 14190-086) are injected by subcutaneous route on the upper back of 120 mice. Prior to implantation, mice are anesthetized by intra-peritoneal injection with a 0.1 mL/10 g dose of anaesthetic solution (18 mL NaCl, 0.9%+0.5 mL xylazine, +1.5 mL ketamine. […]
Body weight, and tumor growth is recorded twice a week during the course of treatment.
After 26 days the treatment is stopped, in each group half of the mice are euthanized for tissue collection, and the other half is kept for a further 7 days, during which period body weight and tumour sized are measured.
In sacrificed mice, blood and tumours are collected, analysed, and the effect of the test compounds is compared with controls (vehicle and paclitaxel).
The values were obtained using the following calculations
Relative Tumor Volume (RTV):
Tumor Growth Inhibition (TGI) TGI=1−T/C

[2] = Plasma exposure at day 7 in the MDA-MB-231 xenograft experiment; type: in vivo, Female BALB/c Mice; details: for AUC: female, BALB/c, mouse, plasma, po
Description: 5 million MDA-MB-231 cells/mice in 0.1 mL of 50% Matrigel (BD biosciences, LDEV free 256235)+50% D-PBS 1× (Gibco 14190-086) are injected by subcutaneous route on the upper back of 120 mice. Prior to implantation, mice are anesthetized by intra-peritoneal injection with a 0.1 mL/10 g dose of anaesthetic solution (18 mL NaCl, 0.9%+0.5 mL xylazine, +1.5 mL ketamine. After implantation, tumours are regularly measured with a calliper, and mice with a mean tumour volume of about 200 mm^3 are randomized into groups of 10 individuals, and each group is dosed either with vehicle (p.o.), paclitaxel as control (3×/week, 20 mg/kg i.p.), or a test compound at doses of 3, 10, 30 or 100 mg/kg (p.o., QD, in 10 mL/kg administration volume)
Even at a 10 fold higher dosing (300 mg/kg, p.o.), Comparative Compound A remains 3.9 fold less exposed than Compound 55.

T1 sequence (P54764 20-986): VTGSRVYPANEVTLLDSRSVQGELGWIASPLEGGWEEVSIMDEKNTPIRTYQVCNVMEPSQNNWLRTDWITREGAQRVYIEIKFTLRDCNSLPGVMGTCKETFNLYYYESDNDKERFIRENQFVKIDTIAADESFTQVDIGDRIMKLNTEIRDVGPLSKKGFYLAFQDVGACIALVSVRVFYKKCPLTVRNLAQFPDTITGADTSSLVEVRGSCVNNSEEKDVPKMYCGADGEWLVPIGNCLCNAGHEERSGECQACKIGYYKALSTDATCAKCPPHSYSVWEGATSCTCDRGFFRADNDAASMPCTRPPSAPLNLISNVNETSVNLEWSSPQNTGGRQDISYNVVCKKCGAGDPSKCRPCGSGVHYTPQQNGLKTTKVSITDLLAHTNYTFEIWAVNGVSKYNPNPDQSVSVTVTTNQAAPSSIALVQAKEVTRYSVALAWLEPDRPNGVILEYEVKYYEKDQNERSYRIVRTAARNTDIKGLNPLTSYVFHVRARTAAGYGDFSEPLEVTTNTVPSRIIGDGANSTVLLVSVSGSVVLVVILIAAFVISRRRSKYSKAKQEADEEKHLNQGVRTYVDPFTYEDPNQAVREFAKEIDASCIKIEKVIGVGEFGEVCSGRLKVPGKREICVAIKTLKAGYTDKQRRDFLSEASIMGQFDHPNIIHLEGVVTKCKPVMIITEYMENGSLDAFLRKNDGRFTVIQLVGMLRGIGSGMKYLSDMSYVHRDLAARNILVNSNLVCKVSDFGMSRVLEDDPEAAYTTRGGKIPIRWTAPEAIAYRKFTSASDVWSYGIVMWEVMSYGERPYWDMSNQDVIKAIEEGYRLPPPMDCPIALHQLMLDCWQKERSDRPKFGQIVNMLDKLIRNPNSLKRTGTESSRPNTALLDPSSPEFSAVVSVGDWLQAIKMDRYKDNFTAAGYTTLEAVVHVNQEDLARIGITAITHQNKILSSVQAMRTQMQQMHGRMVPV

SMILES: Cc1ccc(NC(=O)c2cccc(C(F)(F)F)c2)cc1-c1ccc2c(C(O)CN3CCOCC3)n[nH]c2n1 (stereo not shown) [Compound 2, N-{3-[3-(1-Hydroxy-2-morpholin-4-yl-ethyl)-1H-pyrazolo[3,4-b]pyridin-6-yl]-4-methyl-phenyl}-3-trifluoromethyl-benzamide]
IC50 (EphA4): 0.01 to 25 nM | OARSI score ([1]; 20 mg/kg): −17%, p < 0.05

SMILES: Cc1ccc(NC(=O)c2cccc(N(C)C)c2)cc1-c1ccc2c(C(O)CN3CCOCC3)n[nH]c2n1 (stereo not shown) [Compound 6, 3-Dimethylamino-N-{3-[3-(1-hydroxy-2-morpholin-4-yl-ethyl)-1H-pyrazolo[3,4-b]pyridin-6-yl]-4-methyl-phenyl}-benzamide]
OARSI score ([1]; 30 mg/kg): ns

SMILES: CCc1n[nH]c2nc(-c3cc(NC(=O)c4cc(OC)cc(OC)c4)cnc3C)ccc12 [Compound 13, N-[5-(3-Ethyl-1H-pyrazolo[3,4-b]pyridin-6-yl)-6-methyl-pyridin-3-yl]-3,5-dimethoxy-benzamide]
OARSI score ([1]; 30 mg/kg): ns

SMILES: Cc1ccc(NC(=O)c2cccc(C(F)(F)F)c2)cc1-c1cc(C)c2c(N)n[nH]c2n1 [Compound A, N-(3-(3-amino-4-methyl-1H-pyrazolo[3,4-b]pyridin-6-yl)-4-methylphenyl)-3-(trifluoromethyl)benzamide]
RTV (Relative Tumor Volume) (MDA-MB-231 cells; day 26, 30 mg/kg): 3.40 | T/C (Tumour Vs Control) (MDA-MB-231 cells; day 26, 30 mg/kg): 54.89% | TGI (Tumor Growth Inhibition) (MDA-MB-231 cells; day 26, 30 mg/kg): 45.11% | RTV (Relative Tumor Volume) (MDA-MB-231 cells; day 26, 100 mg/kg): 3.09 | T/C (Tumour Vs Control) (MDA-MB-231 cells; day 26, 100 mg/kg): 47.80% | TGI (Tumor Growth Inhibition) (MDA-MB-231 cells; day 26, 100 mg/kg): 52.20% | RTV (Relative Tumor Volume) (MDA-MB-231 cells; day 26, 300 mg/kg): 4.74 | T/C (Tumour Vs Control) (MDA-MB-231 cells; day 26, 300 mg/kg): 85.40% | TGI (Tumor Growth Inhibition) (MDA-MB-231 cells; day 26, 300 mg/kg): 14.60% | anti-tumour effect (MDA-MB-231 cells; dosed at 30, 100 or 300 mg/kg, 26 days treatment, MDA-MB-231 xenograft): shows a plateau of its anti-tumour effect and is not able to achieve the same effect on inhibition of tumour growth | AUC ([2]; day 7, 30 mg/kg p.o.): 1280 ng·h/mL | AUC ([2]; day 7, 100 mg/kg p.o.): 4240 ng·h/mL | AUC ([2]; day 7, 300 mg/kg p.o.): 7920 ng·h/mL | fold less exposed than Compound 55 ([2]; plasma exposure at day 7, Compound A at 300 mg/kg p.o. (10 fold higher dosing)): 3.9 fold

Now from value to compound, other results behind:

IC50 (EphA4): 50 to 100 nM
SMILES: COc1cc(OC)cc(C(=O)Nc2ccc(C)c(-c3ccc4c(C(C)O)n[nH]c4n3)c2)c1 (stereo not shown) [Compound 9, N-{3-[3-(1-Hydroxy-ethyl)-1H-pyrazolo[3,4-b]pyridin-6-yl]-4-methyl-phenyl}-3,5-dimethoxy-benzamide]
OARSI score ([1]; 30 mg/kg): ns

IC50 (EphA4): > 100 nM
SMILES: COc1cc(OC)cc(C(=O)Nc2ccc(C)c(-c3ccc4c(C5(O)CC5)n[nH]c4n3)c2)c1 [Compound 29, N-{3-[3-(1-Hydroxy-cyclopropyl)-1H-pyrazolo[3,4-b]pyridin-6-yl]-4-methyl-phenyl}-3,5-dimethoxy-benzamide]
OARSI score ([1]; 15 mg/kg): ns

IC50 (EphA4): 25 to 50 nM | exposure compared with comparative Compound A ([2]; even if Compound A is administered at a 10 fold higher dose): higher | AUC ([2]; day 7, 30 mg/kg p.o.): 31000 ng·h/mL | fold higher exposure than the comparison compound A ([2]; plasma exposure at day 7, both at 30 mg/kg p.o.): > 24 fold
SMILES: Cc1ccc(NC(=O)c2cccc(C(F)(F)F)c2)cc1-c1ccc2c([C@H](C)O)n[nH]c2n1 [Compound 55, N-{3-[3-((S)-1-Hydroxy-ethyl)-1H-pyrazolo[3,4-b]pyridin-6-yl]-4-methyl-phenyl}-3-trifluoromethyl-benzamide]
tumour growth (MDA-MB-231 cells; 30 mg/kg p.o., QD, 26 days treatment, MDA-MB-231 xenograft): complete block of tumour growth; also recorded: blocks tumorous growth | RTV (Relative Tumor Volume) (MDA-MB-231 cells; day 26, 30 mg/kg): 1.01 | T/C (Tumour Vs Control) (MDA-MB-231 cells; day 26, 30 mg/kg): 0.14% | TGI (Tumor Growth Inhibition) (MDA-MB-231 cells; day 26, 30 mg/kg): 99.86% | OARSI score ([1]; 30 mg/kg): −23%, p < 0.05
